pIC50: −log10 of the molar value.
Molecular target: T1, Recombinant human TPH1 (MBP tagged) (Homo sapiens, UniProt P17752)
T1 construct: cloning full length human TPH1 cDNA in to a bacterial pMAL-c5E expression vector; made in house; host or cells: E. coli BL21 (DE3)
T1 sequence (P17752 1-444): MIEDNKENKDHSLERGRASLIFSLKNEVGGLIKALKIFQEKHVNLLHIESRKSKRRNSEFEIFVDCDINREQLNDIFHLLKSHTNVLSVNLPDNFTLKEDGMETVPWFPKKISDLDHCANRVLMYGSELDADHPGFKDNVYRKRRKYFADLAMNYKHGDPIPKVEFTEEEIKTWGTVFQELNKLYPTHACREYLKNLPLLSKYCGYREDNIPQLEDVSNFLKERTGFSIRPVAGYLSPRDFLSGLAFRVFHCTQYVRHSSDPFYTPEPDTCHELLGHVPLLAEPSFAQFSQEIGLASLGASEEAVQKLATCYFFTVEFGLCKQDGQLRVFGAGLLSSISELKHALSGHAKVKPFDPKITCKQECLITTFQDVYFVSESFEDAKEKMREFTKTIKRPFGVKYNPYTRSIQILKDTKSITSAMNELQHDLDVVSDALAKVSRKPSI
Assay: TPH1 in vitro inhibition assay (kinetic fluorescence)
Type: biochemical
Conditions: read-out: TPH1 Range (TPH1 inhibition IC50)
Outline: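 Final mix: 15 nM MBP-TPH1, 30 μM Trp, 36 μM 6-methyltetrahydropterin, 25 μM ferrous ammonium sulfate, 50 mM MES pH 7.1, 1% DMSO, room temperature.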

SMILES | pIC50
Nc1nc(O[C@H](c2ccc(-c3ccc(O)cc3)cc2)C(F)(F)F)cc(N2CCC3(CC2)CN[C@H](C(=O)O)C3)n1 [Example 55cb, (S)-8-(2-amino-6-((R)-2,2,2-trifluoro-1-(4′-hydroxy-[1,1′-biphenyl]-4-yl)ethoxy)pyrimidin-4-yl)-2,8-diazaspiro[4.5]decane-3-carboxylic acid] | 6.52 to 7.30
COc1ccc(-c2ccc([C@@H](Oc3cc(N4CCC5(CC4)CN[C@H](C(=O)O)C5)nc(N)n3)C(F)(F)F)cc2)c(OC)c1 [Example 55cc, (S)-8-(2-amino-6-((R)-1-(2′,4′-dimethoxy-[1,1′-biphenyl]-4-yl)-2,2,2-trifluoroethoxy)pyrimidin-4-yl)-2,8-diazaspiro[4.5]decane-3-carboxylic acid] | 6.52 to 7.30
Nc1nc(O[C@H](c2ccc(-c3ccc(C(F)(F)F)cc3)cc2)C(F)(F)F)cc(N2CCC3(CC2)CN[C@H](C(=O)O)C3)n1 [Example 55cd, (S)-8-(2-amino-6-((R)-2,2,2-trifluoro-1-(4′-(trifluoromethyl)-[1,1′-biphenyl]-4-yl)ethoxy)pyrimidin-4-yl)-2,8-diazaspiro[4.5]decane-3-carboxylic acid] | 5.52 to 6.52
Nc1nc(O[C@H](c2ccc(-c3ccccc3C(F)(F)F)cc2)C(F)(F)F)cc(N2CCC3(CC2)CN[C@H](C(=O)O)C3)n1 [Example 55ce, (S)-8-(2-amino-6-((R)-2,2,2-trifluoro-1-(2′-(trifluoromethyl)-[1,1′-biphenyl]-4-yl)ethoxy)pyrimidin-4-yl)-2,8-diazaspiro[4.5]decane-3-carboxylic acid] | 5.52 to 6.52
Nc1nc(O[C@H](c2ccc(-c3c(F)cccc3F)cc2)C(F)(F)F)cc(N2CCC3(CC2)CN[C@H](C(=O)O)C3)n1 [Example 55cf, (S)-8-(2-amino-6-((R)-1-(2′,6′-difluoro-[1,1′-biphenyl]-4-yl)-2,2,2-trifluoroethoxy)pyrimidin-4-yl)-2,8-diazaspiro[4.5]decane-3-carboxylic acid] | 5.00 to 5.52
Cc1cccc(C)c1-c1ccc([C@@H](Oc2cc(N3CCC4(CC3)CN[C@H](C(=O)O)C4)nc(N)n2)C(F)(F)F)cc1 [Example 55cg, (S)-8-(2-amino-6-((R)-1-(2′,6′-dimethyl-[1,1′-biphenyl]-4-yl)-2,2,2-trifluoroethoxy)pyrimidin-4-yl)-2,8-diazaspiro[4.5]decane-3-carboxylic acid] | 5.52 to 6.52
Cc1ccc(-c2ccc([C@@H](Oc3cc(N4CCC5(CC4)CN[C@H](C(=O)O)C5)nc(N)n3)C(F)(F)F)cc2)cc1C [Example 55ch, (S)-8-(2-amino-6-((R)-1-(3′,4′-dimethyl-[1,1′-biphenyl]-4-yl)-2,2,2-trifluoroethoxy)pyrimidin-4-yl)-2,8-diazaspiro[4.5]decane-3-carboxylic acid] | 6.52 to 7.30
CC(C)(C)c1ccc(-c2ccc([C@@H](Oc3cc(N4CCC5(CC4)CN[C@H](C(=O)O)C5)nc(N)n3)C(F)(F)F)cc2)cc1 [Example 55ci, (S)-8-(2-amino-6-((R)-1-(4′-(tert-butyl)-[1,1′-biphenyl]-4-yl)-2,2,2-trifluoroethoxy)pyrimidin-4-yl)-2,8-diazaspiro[4.5]decane-3-carboxylic acid] | 5.52 to 6.52
CC(C)c1ccc(-c2ccc([C@@H](Oc3cc(N4CCC5(CC4)CN[C@H](C(=O)O)C5)nc(N)n3)C(F)(F)F)cc2)cc1 [Example 55cj, (S)-8-(2-amino-6-((R)-2,2,2-trifluoro-1-(4′-isopropyl-[1,1′-biphenyl]-4-yl)ethoxy)pyrimidin-4-yl)-2,8-diazaspiro[4.5]decane-3-carboxylic acid] | 5.52 to 6.52
CC(C)c1cccc(-c2ccc([C@@H](Oc3cc(N4CCC5(CC4)CN[C@H](C(=O)O)C5)nc(N)n3)C(F)(F)F)cc2)c1 [Example 55ck, (S)-8-(2-amino-6-((R)-2,2,2-trifluoro-1-(3′-isopropyl-[1,1′-biphenyl]-4-yl)ethoxy)pyrimidin-4-yl)-2,8-diazaspiro[4.5]decane-3-carboxylic acid] | 5.52 to 6.52
Nc1nc(O[C@H](c2ccc(-c3ccc(Cl)c(Cl)c3)cc2)C(F)(F)F)cc(N2CCC3(CC2)CN[C@H](C(=O)O)C3)n1 [Example 55cl, (S)-8-(2-amino-6-((R)-1-(3′,4′-dichloro-[1,1′-biphenyl]-4-yl)-2,2,2-trifluoroethoxy)pyrimidin-4-yl)-2,8-diazaspiro[4.5]decane-3-carboxylic acid] | 6.52 to 7.30
Nc1nc(O[C@H](c2ccc(-c3ccc(OC(F)(F)F)cc3)cc2)C(F)(F)F)cc(N2CCC3(CC2)CN[C@H](C(=O)O)C3)n1 [Example 55cm, (S)-8-(2-amino-6-((R)-2,2,2-trifluoro-1-(4′-(trifluoromethoxy)-[1,1′-biphenyl]-4-yl)ethoxy)pyrimidin-4-yl)-2,8-diazaspiro[4.5]decane-3-carboxylic acid] | 5.52 to 6.52

Results, then the molecule that gave them:

pIC50 | SMILES
5.52 to 6.52 | Cc1cccc(-c2ccc([C@@H](Oc3cc(N4CCC5(CC4)CN[C@H](C(=O)O)C5)nc(N)n3)C(F)(F)F)cc2)c1C [Example 55cn, (S)-8-(2-amino-6-((R)-1-(2′,3′-dimethyl-[1,1′-biphenyl]-4-yl)-2,2,2-trifluoroethoxy)pyrimidin-4-yl)-2,8-diazaspiro[4.5]decane-3-carboxylic acid]
5.52 to 6.52 | Cc1cc(Cl)ccc1-c1ccc([C@@H](Oc2cc(N3CCC4(CC3)CN[C@H](C(=O)O)C4)nc(N)n2)C(F)(F)F)cc1 [Example 55cp, (S)-8-(2-amino-6-((R)-1-(4′-chloro-2′-methyl-[1,1′-biphenyl]-4-yl)-2,2,2-trifluoroethoxy)pyrimidin-4-yl)-2,8-diazaspiro[4.5]decane-3-carboxylic acid]
6.52 to 7.30 | Cc1cc(C)cc(-c2ccc([C@@H](Oc3cc(N4CCC5(CC4)CN[C@H](C(=O)O)C5)nc(N)n3)C(F)(F)F)cc2)c1 [Example 55cq, (S)-8-(2-amino-6-((R)-1-(3′,5′-dimethyl-[1,1′-biphenyl]-4-yl)-2,2,2-trifluoroethoxy)pyrimidin-4-yl)-2,8-diazaspiro[4.5]decane-3-carboxylic acid]
5.52 to 6.52 | Nc1nc(O[C@H](c2ccc(-c3ccc(F)c(F)c3)cc2)C(F)(F)F)cc(N2CCC3(CC2)CN[C@H](C(=O)O)C3)n1 [Example 55cr, (S)-8-(2-amino-6-((R)-1-(3′,4′-difluoro-[1,1′-biphenyl]-4-yl)-2,2,2-trifluoroethoxy)pyrimidin-4-yl)-2,8-diazaspiro[4.5]decane-3-carboxylic acid]
5.52 to 6.52 | Cc1ccc(C)c(-c2ccc([C@@H](Oc3cc(N4CCC5(CC4)CN[C@H](C(=O)O)C5)nc(N)n3)C(F)(F)F)cc2)c1 [Example 55cs, (S)-8-(2-amino-6-((R)-1-(2′,5′-dimethyl-[1,1′-biphenyl]-4-yl)-2,2,2-trifluoroethoxy)pyrimidin-4-yl)-2,8-diazaspiro[4.5]decane-3-carboxylic acid]
5.52 to 6.52 | CCCCc1ccc(-c2ccc([C@@H](Oc3cc(N4CCC5(CC4)CN[C@H](C(=O)O)C5)nc(N)n3)C(F)(F)F)cc2)cc1 [Example 55ct, (S)-8-(2-amino-6-((R)-1-(4′-butyl-[1,1′-biphenyl]-4-yl)-2,2,2-trifluoroethoxy)pyrimidin-4-yl)-2,8-diazaspiro[4.5]decane-3-carboxylic acid]
5.52 to 6.52 | Cc1ccc(-c2ccc([C@@H](Oc3cc(N4CCC5(CC4)CN[C@H](C(=O)O)C5)nc(N)n3)C(F)(F)F)cc2)cc1F [Example 55cu, (S)-8-(2-amino-6-((R)-2,2,2-trifluoro-1-(3′-fluoro-4′-methyl-[1,1′-biphenyl]-4-yl)ethoxy)pyrimidin-4-yl)-2,8-diazaspiro[4.5]decane-3-carboxylic acid]
5.52 to 6.52 | CS(=O)(=O)c1ccc(-c2ccc([C@@H](Oc3cc(N4CCC5(CC4)CN[C@H](C(=O)O)C5)nc(N)n3)C(F)(F)F)cc2)cc1 [Example 55cv, (S)-8-(2-amino-6-((R)-2,2,2-trifluoro-1-(4′-(methylsulfonyl)-[1,1′-biphenyl]-4-yl)ethoxy)pyrimidin-4-yl)-2,8-diazaspiro[4.5]decane-3-carboxylic acid]
5.52 to 6.52 | Cc1ccc(-c2ccc([C@@H](Oc3cc(N4CCC5(CC4)CN[C@H](C(=O)O)C5)nc(N)n3)C(F)(F)F)cc2)cc1 [Example 55cw, (S)-8-(2-amino-6-((R)-2,2,2-trifluoro-1-(4′-methyl-[1,1′-biphenyl]-4-yl)ethoxy)pyrimidin-4-yl)-2,8-diazaspiro[4.5]decane-3-carboxylic acid]
5.52 to 6.52 | Cc1cccc(-c2ccc([C@@H](Oc3cc(N4CCC5(CC4)CN[C@H](C(=O)O)C5)nc(N)n3)C(F)(F)F)cc2)c1 [Example 55cx, (S)-8-(2-amino-6-((R)-2,2,2-trifluoro-1-(3′-methyl-[1,1′-biphenyl]-4-yl)ethoxy)pyrimidin-4-yl)-2,8-diazaspiro[4.5]decane-3-carboxylic acid]
5.52 to 6.52 | Nc1nc(O[C@H](c2ccc(-c3ccc(Cl)cc3)cc2)C(F)(F)F)cc(N2CCC3(CC2)CN[C@H](C(=O)O)C3)n1 [Example 55cy, (S)-8-(2-amino-6-((R)-1-(4′-chloro-[1,1′-biphenyl]-4-yl)-2,2,2-trifluoroethoxy)pyrimidin-4-yl)-2,8-diazaspiro[4.5]decane-3-carboxylic acid]
6.52 to 7.30 | Nc1nc(O[C@H](c2ccc(-c3coc4ccccc34)cc2)C(F)(F)F)cc(N2CCC3(CC2)CN[C@H](C(=O)O)C3)n1 [Example 55cz, (S)-8-(2-amino-6-((R)-1-(4-(benzofuran-3-yl)phenyl)-2,2,2-trifluoroethoxy)pyrimidin-4-yl)-2,8-diazaspiro[4.5]decane-3-carboxylic acid]
